According to patent US10016373B2, “CB2 receptor ligands for the treatment of psychiatric disorders” (priority 2013, dated 2018):
Where two headings read alike, the source gives them in different places.

How the values were obtained:
Type in all cases: in vivo
mice [1] = assay: Impulsivity, Elevated Plus Maze; conditions: age 13 weeks, postnatal CB2 agonist2 5 mg/kg
Protocol: The treatment consisted of a single intravenous administration of the vehicle or the M1 solution Impulsivity was tested 24 hours after treatment.
Impulsivity as measured by the paucity of time spent on the two anxiety-provoking, open arms (as opposed to the two enclosed arms) of an “Elevated Plus Maze” was used as a parameter of negative symptoms of schizophrenia (Josselyn and Vaccarino, 1998). The plus maze was elevated 50 cm above the table top. Behavior of each mouse was recorded for 5 minutes by a video camera and scored using the “EthoVision” software (Noldus), measuring the number of entries as well as the amount of time spent in each arm, open or closed. Reduced time spent in the closed arms indicated reduced anxiety. Increased time spent in the opened arms indicated increased risk behavior (hyperactive and impulsive).
The treatment consisted of a single i.p. administration of the vehicle or the M1 solution. The duration ratio open arm/close arm and the frequency ratio open arm/close arm in the Elevated Plus Maze were evaluated 24 hours after treatment with either vehicle or M1.

mice [2] = assay: Vocal tics, ultrasonic voice recording
Protocol: Mice were recorded at the age of 13 or 23-25 weeks with an ultrasonic voice recorder (Noldus). Mice were recorded at the age of 29 days with an ultrasonic voice recorder (AviSoft). Single mice were recorded in a cage for 10 min (according to sex and type of treatment). The number and duration of events at 20-40 kHz and at 50-70 kHz were analyzed. In some experiments, 24 h following M1 treatment, each mouse was recorded for 10 min before and after stress. Stress was induced by incubation for 10-15 min in a mouse restrainer.

mice [3] = assay: Prepulse inhibition (PPI) of the startle reflex
Protocol: Attention Test: Prepulse Inhibition (PPI) of the Startle Reflex
A weak audible stimulus (74-90 dB tone) “prepulse” was used to inhibit the acoustic startle response to a subsequent strong audible stimulus (120 dB tone) “pulse”. Reduced prepulse inhibition of the startle reflex (PPI) was taken as an index of the positive symptoms of deficits in attention.
PPI was assessed similarly to the method described by Varty et al. (2001). Mice were placed in a startle chamber and allowed to acclimatize for 5 minutes A loudspeaker produced startling “pulse” at 120 dB and thereafter 65 dB background white noise or one of […] 20 ms duration “prepulses” at 74, 78, 82, 86, and 90 dB followed after 20 ms by a 40 ms startling “pulse” at 120 dB. The response of each mouse was recorded and stored by a computer. Each test session lasted for 11 minutes and consisted of 5 presentations of each of the prepulse/pulse sound stimuli (total of 30 or 35) presented in random order and separated by 15 second intervals. The magnitude of prepulse inhibition was calculated as percentage PPI=[1-(acoustic startle for prepulse+pulse)/(acoustic startle for pulse alone)]×100.

mice [4] = system: mice
Protocol: For the treated mice, one of the two CB2 receptor-selective agonist solutions: either CB2 agonist2 solution or H-308 solution, was administered by intravenous administration to mice pups to induce ADHD-like behavior and/or obsessive-compulsive-like behavior as a murine model for ADHD and OCD. […] In order to test the effect of non-agonist or mixed-type agonist/inverse agonist CB2 receptor ligands on hyperactivity, the effects of M1 were studied.
Open-Field Test (Crossing and Rearing, Defecation, Grooming)
Mice were assessed for hyperactive behavior on postnatal days 16-20, 26-39, at age 13 weeks and at age 23 weeks. Mice were placed in the center of a transparent glass cage 30×40×31 cm divided into squares of 7.5×7.5 cm. The number of squares crossed and the rearing activity were evaluated for 8 min.

mice [5] = assay: Motor tics in the open field test

C=C1CC/C=C(\C)CC[C@@H]2[C@@H]1CC2(C)C [CB2 agonist2, beta-caryophyllene]
increase: ambulation (mice [4]; model mice 5 mg/kg CB2 agonist2 postnatal days 1-5, M1 5 mg/kg single i.p. at 13 weeks, 30 minutes after treatment, FIG. 5A) | rearing (mice [4]; model mice 5 mg/kg CB2 agonist2 postnatal days 1-5, M1 5 mg/kg single i.p. at 13 weeks, 30 minutes after treatment, FIG. 5B)
not significantly different: acoustic startle (mice [3]; model mice vs control mice at the age of 8 weeks, FIG. 3A)
increased: ratio of duration in the open arm/close arm (mice [1]; females, FIG. 6A) | ratio of duration in the open arm/close arm (mice [1]; males+females, FIG. 6B) | number of vocal events (mice [2]; 20-40 KHz, day 29, female mice, CB2 agonist2 0.5 mg/kg at the age of 3-15 days, M1 5 mg/kg on day 29, FIG. 14A) | duration of vocals (mice [2]; 20-40 KHz, day 29, female mice, CB2 agonist2 0.5 mg/kg at the age of 3-15 days, M1 5 mg/kg on day 29, FIG. 14B) | number of vocal events (mice [2]; female mice 23-25 weeks, 20-40 KHz, stress, CB2 agonist2 5 mg/kg postnatal days 5-13, M1 given to model mice, FIG. 7A) | total duration of vocal events (mice [2]; female mice 23-25 weeks, 20-40 KHz, stress, CB2 agonist2 5 mg/kg postnatal days 5-13, M1 given to model mice, FIG. 7B) | mean duration of vocal events (mice [2]; female mice 23-25 weeks, 20-40 KHz, stress, CB2 agonist2 5 mg/kg postnatal days 5-13, M1 given to model mice, FIG. 7C) | number of vocal events (mice [2]; female mice 23-25 weeks, 50-70 KHz, stress, CB2 agonist2 5 mg/kg postnatal days 5-13, M1 given to model mice, FIG. 8A) | total duration of vocal events (mice [2]; female mice 23-25 weeks, 50-70 KHz, stress, CB2 agonist2 5 mg/kg postnatal days 5-13, M1 given to model mice, FIG. 8B) | mean duration of vocal events (mice [2]; female mice 23-25 weeks, 50-70 KHz, stress, CB2 agonist2 5 mg/kg postnatal days 5-13, M1 given to model mice, FIG. 8C) | total duration of vocal events (mice [2]; male mice 23-25 weeks, 20-40 KHz, before stress, CB2 agonist2 5 mg/kg postnatal days 5-13, M1 given to model mice, FIG. 9A) | mean duration of vocal events (mice [2]; male mice 23-25 weeks, 20-40 KHz, before stress, CB2 agonist2 5 mg/kg postnatal days 5-13, M1 given to model mice, FIG. 9B) | total duration of vocal events (mice [2]; male mice 23-25 weeks, 50-70 KHz, before stress, CB2 agonist2 5 mg/kg postnatal days 5-13, M1 given to model mice, FIG. 10A) | mean duration of vocal events (mice [2]; male mice 23-25 weeks, 50-70 KHz, before stress, CB2 agonist2 5 mg/kg postnatal days 5-13, M1 given to model mice, FIG. 10B) | grooming (mice [4]; CB2 agonist2 0.5 mg/kg at the age of 3-15 days, M1 5 mg/kg on day 29, measured on day 39, stressed female mice, FIG. 13A) | feces secretion (mice [4]; CB2 agonist2 0.5 mg/kg at the age of 3-15 days, M1 5 mg/kg on day 29, measured on day 39, stressed female mice, FIG. 13B) | rearing (mice [4]; CB2 agonist2 0.5 mg/kg at the age of 3-15 days, M1 on day 29, measured on day 36, unstressed female mice, FIG. 12A) | ambulation (mice [4]; CB2 agonist2 0.5 mg/kg at the age of 3-15 days, M1 on day 29, measured on day 39, stressed female mice, FIG. 12B) | ambulation (mice [4]; CB2 agonist2 0.5 mg/kg at the age of 3-15 days, measured on day 26, unstressed females, FIG. 11A) | rearing (mice [4]; CB2 agonist2 0.5 mg/kg at the age of 3-15 days, measured on day 26, unstressed females, FIG. 11C) | grooming duration (mice [4]; model mice 5 mg/kg CB2 agonist2 postnatal days 5-13, M1 5 mg/kg single i.p. at 23 weeks, tested 48 hours after treatment, FIG. 4A) | grooming frequency (mice [4]; model mice 5 mg/kg CB2 agonist2 postnatal days 5-13, M1 5 mg/kg single i.p. at 23 weeks, tested 48 hours after treatment, FIG. 4B) | ambulation (mice [4]; open field test at postnatal days 16-19, 5 mg/kg CB2 agonist2 at postnatal days 5-13, FIG. 1A) | rearing (mice [4]; open field test at postnatal days 16-19, 5 mg/kg CB2 agonist2 at postnatal days 5-13, FIG. 1B) | ambulation (mice [4]; open field test at postnatal days 16-19, 10 mg/kg CB2 agonist2 at postnatal days 5-13, FIG. 1C) | rearing (mice [4]; open field test at postnatal days 16-19, 10 mg/kg CB2 agonist2 at postnatal days 5-13, FIG. 1D)
decreased: percent pre-pulse inhibition (mice [3]; female mice treated with CB2 agonist2 at postnatal days 5-13, FIG. 3B) | secretion of feces (mice [4]; model mice 5 mg/kg CB2 agonist2 postnatal days 5-13, M1 5 mg/kg single i.p. at 23 weeks, FIG. 4C)

CCCCCCC(C)(C)c1cc(OC)c([C@@H]2C=C(CO)[C@@H]3C[C@H]2C3(C)C)c(OC)c1 [HU-308, [(1R,2R,5R)-2-[2,6-dimethoxy-4-(2-methyloctan-2-yl)phenyl]-7,7-dimethyl-4-bicyclo[3.1.1]hept-3-enyl]methanol]
18: Number of tics, Total (mice [5]; HU-308 5 mg/kg postnatal days 5-13, age 12 weeks, total over the recording)
induced: abnormal motor tics/head twitches (mice [5]; HU-308 5 mg/kg during postnatal days 5-13, age of 12 weeks, open field test) | hyperactivity (mice [4]; age of 3 months, 0.1 mg/kg HU-308, M1 5 mg/kg in gavage 30 minutes before the experiment, FIGS. 17A-B)
decreased: percent pre-pulse inhibition (mice [3]; female mice injected with HU-308 at postnatal days 5-13, FIG. 3D) | percent pre-pulse inhibition (mice [3]; male mice injected with HU-308 at postnatal days 5-13, FIG. 3C)
increased: ambulation (mice [4]; open field test at postnatal days 16-19, 5 mg/kg HU-308 at postnatal days 5-13, FIG. 2A) | rearing (mice [4]; open field test at postnatal days 16-19, 5 mg/kg HU-308 at postnatal days 5-13, FIG. 2B)
